Patent publication US12433954B2, “Methods of activating anti-CD19 chimeric antigen receptor (CAR) T cells using amphiphilic ligand conjugates comprising CAR-targeting protein sequence motifs” (Massachusetts Institute of Technology, priority 2020, dated 2025)
Bridge positions count the residues as written; N and C are the ends. Ends that are not written are not given here. Peptide text beside a SMILES is read from it. * marks the point of attachment. Biotin = O=C1N[C@H]2[C@H](CS[C@H]2CCCCC(=O)*)N1

Legend:
FMC63 IgG = test: ELISA of N-terminally biotinylated F12 variants on streptavidin plate, binding to FMC63 IgG; design: species or system mouse; conditions: read-out: Kd (nM), FMC63 binding affinity of F12 variants with N-terminal flanking residues
FMC63 CAR T cells = test: In vivo CAR T cell proliferation in lymph nodes after amph-mimotope vaccination (cell trace violet dilution); design: species or system mice; conditions: inguinal LNs 48 hours post-vaccination; s.c. tail base with 25 μg cyclic-di-GMP; 10 ug monovalent or 20 ug bivalent
Description: FIG. 18A depicts a timeline for administration of CD45.1+ donor FMC63 CAR T cells to CD45.2+ recipient mice on Day 0, followed by administration of amph-mimotope or bivalent amph-mimotope on Day 1, and analysis of CAR T cell proliferation in lymph nodes harvested on Day 3 measured by cell trace violet dilution.
FIG. 18B provides histograms measuring the proliferation of FMC63 CAR T cells isolated from mice on Day 3 as depicted in FIG. 18A. The mice were administered amph-mimotope containing a mimotope with the sequence set forth in SEQ ID NO: 128 or 129 (Amph-K-A1 or Amph-K-C2 respectively) or the bivalent mimotopes depicted in FIG. 17C (amph-bi-F12-peg8 or amph-bi-F12-peg4). Control mice were administered no amph-mimotope.
CD45.1^+ donor FMC63 CAR T cells were prepared as described in Example 3 and labeled with cell trace violet according to manufacturer's protocol. 2×10^6 CAR T cells were administered into CD45.2^+ recipient mice via tail vein injection on Day 0. The following day, recipient mice were vaccinated by subcutaneous injection at the tail base with the following vaccine formulation: • (i) 10 ug of monovalent amph-mimotope (Amph-K-A1 or Amph-K-C2)+25 μg of cyclic-di-GMP in 1×PBS; or • (ii) 20 ug of amph-Bi-F12-mimotope (PEG4 or PEG8)+25 μg of cyclic-di-GMP in 1×PBS. […]

FMC63 scFv = test: Dissociation kinetics of FMC63 scFv from yeast clones (flow cytometry); assay type: binding, mouse; conditions: yeast clones labeled, washed, incubated 0-72 hours
Sequence of FMC63 scFv (as listed by the source): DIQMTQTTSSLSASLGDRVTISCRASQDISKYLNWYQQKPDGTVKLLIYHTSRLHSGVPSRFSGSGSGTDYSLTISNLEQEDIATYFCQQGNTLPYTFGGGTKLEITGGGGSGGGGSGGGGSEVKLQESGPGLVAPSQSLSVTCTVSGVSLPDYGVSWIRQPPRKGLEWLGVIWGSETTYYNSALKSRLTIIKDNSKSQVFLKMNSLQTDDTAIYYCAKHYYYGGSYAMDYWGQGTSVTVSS
Description: The yeast clones were labeled with the scFv, washed, and incubated for 0-72 hours as indicated prior to analysis.
The dissociation kinetics following binding of the mimotopes to FMC63 were also investigated. […] The yeast were then washed, and incubated for 0-72 hours prior to analysis of the degree of FMC63 scFv labeling by flow cytometry.

FMC63 = FMC63 binding of mimotope-expressing yeast after DTT treatment (flow cytometry); design: species or system mouse; conditions: DTT 0.01-10 mM, 30 minutes, room temperature; yeast-displayed
Sequence of FMC63 (as listed by the source): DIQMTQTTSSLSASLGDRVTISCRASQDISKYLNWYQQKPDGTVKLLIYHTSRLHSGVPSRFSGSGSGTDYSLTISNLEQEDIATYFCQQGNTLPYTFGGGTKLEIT
Sequence of FMC63 (as listed by the source): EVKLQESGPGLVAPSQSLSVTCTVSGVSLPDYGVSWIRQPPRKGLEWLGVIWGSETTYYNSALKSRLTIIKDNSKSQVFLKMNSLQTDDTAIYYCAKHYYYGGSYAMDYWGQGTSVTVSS
Description: To determine the formation of an intra-peptidyl disulfide bridge formed by the two Cys residues, mimotope expressing yeast were treated in reducing conditions and binding of the mimotope to FMC63 IgG was measured. […] Similarly, control cells expressing Aga2p (connected to the yeast surface by disulfide bridge) were treated with DTT. Following treatment, cells were labelled with biotinylated Aga2p or FMC63 and binding was measured by flow cytometry. At mild reducing conditions, Aga2p was maintained on the yeast surface while mimotope binding to FMC63 was abolished (FIG. 6). The inhibition of mimotope binding to FMC63 following treatment with a reducing agent reaffirms the formation of the disulfide bond and its importance for binding.

FMC63 IgG antibody = test: Alanine scanning mutagenesis, flow cytometry binding to FMC63 IgG; design: species or system mouse; conditions: yeast stained with 5 μM FMC63 IgG antibody
Description: FIG. 11 provides a graph showing flow cytometry analysis of alanine scanning mutagenesis for […] (SEQ ID NO: 16) where each amino acid position was mutated to an alanine, or additional alanine residues (one or two) were added. Flow cytometry analysis was performed to evaluate binding to the FMC63 IgG antibody.
To determine the effect of amino acid position on binding to FMC63, an alanine mutagenesis experiment was performed were each amino acid was mutated to alanine and binding to FMC63 was assessed. Specifically, a representative mimotope, […] (SEQ ID NO: 16), was mutated at each amino acid position to generate an alanine (SEQ ID NOs: 54-63) (Table 7). To assess the tolerance of additional alanine residues, one alanine or two alanine residues were inserted between the two cysteine residues (SEQ ID NOs: 52 and 53) to determine the impact the loop structure had on mimotope binding to FMC63. To generate mutations, two complementary oligos with the codon replaced at the desired site were denatured at 95° C. and annealed by slow cooling to 25° C. (decreasing by 0.5° C./second). The annealed oligos were treated with T4 PNK (T4 Polynucleotide Kinase) to add a terminal phosphate, and then ligated into digested pCT-CON2 vector. Positive clones having the correct oligo inserted were tested and transformed into competent EBY100 yeast cells. […]

[1] = tested on: FMC63 anti-hCD19 CAR-T cells; test: IFNγ secretion of CAR-T cells co-cultured with amph-mimotope coated K562 cells (ELISA); assay type: cell-based; conditions: K562 coated with 10 μM amph-mimotope, E:T 10:1, 24 hours; compared to amphiphile only control
Description: ID NO: 5) at 10 μM and incubated at 37° C. for 30 minutes. The labeling reaction was stopped by pelleting cells and washing with PBS. To mimic antigen presenting cells in lymph nodes, K562 cells were decorated with amph-mimotope, and then co-cultured at an effector to target (E:T) ratio of 10:1 with FMC63 expressing CAR-T cells (hCD19-CAR; SEQ ID NO: 78) for 24 hours. The hCD19-CAR was generated in part from a previously reported CAR (Pegram, H., et al. (2012) Blood 119:18 (4133-4141) and is composed of a human CD8 signal peptide (SEQ ID NO: 87), FMC63 scFV (SEQ ID NO: 70), murine CD8 hinge (SEQ ID NO: 74), a murine CD8 transmembrane domain (SEQ ID NO: 75), a murine CD28 costimulatory domain (SEQ ID NO: 76) and a murine CD3ζ intracellular domain (SEQ ID NO: 77). The overall CAR is provided in SEQ ID NO: 78. After co-culture, cells were pelleted at 2,000×g for 5 minutes, and the supernatant was harvested for IFNγ ELISA and processed following the manufacturer's protocol (Human IFNγ ELISA MAXTM Deluxe (Biolegend)).

[2] = Micelle stability of lipid-oligonucleotide conjugates in presence of serum; assay type: physicochemical; conditions: for percentage of intact micelles: micelles formed in aqueous solution, in the presence of serum (FBS); for micelle stability on increasing number of guanines: in the presence of serum, compared with lipo-G6T4-CG
Description: For example, in certain embodiments, a plurality of lipid conjugates is allowed to spontaneously form micelles in aqueous solution. The micelles are incubated with albumin, or a solution including albumin such as Fetal Bovine Serum (FBS). Samples can be analyzed, for example, by ELISA, size exclusion chromatography or other methods to determine if binding has occurred. Lipid conjugates can be selected as lymph node-targeting conjugates if in the presence of albumin, or a solution including albumin such as Fetal Bovine Serum (FBS), the micelles dissociate and the lipid conjugates bind to albumin as discussed above.
In certain embodiments, the linker is one or more guanines, for example between 1-10 guanines. It has been discovered that altering the number of guanines between a cargo such as a CpG oligonucleotide, and a lipid tail controls micelle stability in the presence of serum proteins. Therefore, the number of guanines in the linker can be selected based on the desired affinity of the conjugate for serum proteins such as albumin. When the cargo is a CpG immunostimulatory oligonucleotide and the lipid tail is a diacyl lipid, the number of guanines affects the ability of micelles formed in aqueous solution to dissociate in the presence of serum: 20% of the non-stabilized micelles (lipo-G0T10-CG) (SEQ ID NO: 138) were intact, while the remaining 80% were disrupted and bonded with FBS components.

Compound CC[C@H](C)[C@H](NC(=O)[C@H](CCCNC(=N)N)NC(=O)[C@H](CO)NC(=O)[C@H](C)NC(=O)[C@H](CO)NC(=O)CCCC[C@@H]1SC[C@@H]2NC(=O)N[C@@H]21)C(=O)N[C@H]1CSSC[C@@H](C(=O)N[C@@H](CCCCN)C(=O)N[C@@H](CCC(=O)O)C(=O)N[C@@H](CC(C)C)C(=O)O)NC(=O)[C@H](CC(N)=O)NC(=O)[C@H](Cc2c[nH]c3ccccc23)NC(=O)[C@@H]2CCCN2C1=O [SEQ ID NO: 95] (Biotin-SASRICPWNCKEL-OH; disulfide 6-10) has a Kd (FMC63 IgG) of 0.147 nM.

For CC[C@H](C)[C@H](NC(=O)[C@H](CCCNC(=N)N)NC(=O)[C@H](CO)NC(=O)[C@H](C)NC(=O)[C@H](CO)NC(=O)CNC(=O)CNC(=O)CNC(=O)CCCC[C@@H]1SC[C@@H]2NC(=O)N[C@@H]21)C(=O)N[C@H]1CSSC[C@@H](C(=O)N[C@@H](CCCCN)C(=O)N[C@@H](CCC(=O)O)C(=O)N[C@@H](CC(C)C)C(=O)O)NC(=O)[C@H](CC(N)=O)NC(=O)[C@H](Cc2c[nH]c3ccccc23)NC(=O)[C@@H]2CCCN2C1=O [SEQ ID NO: 96] (Biotin-GGGSASRICPWNCKEL-OH; disulfide 9-13), the Kd (FMC63 IgG) was 0.141 nM.

With “Amph-K-C2 (GGGSASRICPWNCKELPSPPRIFGNR; cysteine pairing not given here; also: amphiphile lipid conjugate, site not given here)” the “proliferation of CAR T cells in vivo (cell violet dilution)” value (FMC63 CAR T cells) was “observed”.

With “K-A1 (PRKHSGRICPWNCKELDNPPFIFGNR; Synthetic FMC63 mimotope (A1))” the “time for which FMC63 scFv labeling is retained after wash” value (FMC63 scFv) was no less than 72 h.

With RHCPWNCSLL [Clone A1] the “mimotope binding to FMC63 after DTT” value (FMC63) was “abolished”.

In the case of “RLCPWSAACREL (Synthetic FMC63 Mimotope Mutant) [SEQ ID NO: 52]”, the “mimotope binding to FMC63 of RLCPWSCREL variants” value (FMC63 IgG antibody) is reported as “abolished”.

For “RLCPWSACREL (Synthetic FMC63 Mimotope Mutant) [SEQ ID NO: 53]”, the “mimotope binding to FMC63 of RLCPWSCREL variants” value (FMC63 IgG antibody) was “abolished”.

With “amph-mimotope (RHCPWNCSLL; SEQ ID NO: 5) (cysteine pairing not given here; also: amphiphilic lipid tail conjugated, site not given here)” the “CAR-T cell activation measured by IFNγ secretion” value [1] was “significantly activated”.

For “lipo-G0T10-CG (DNA TTTTTTTTTTCG; DNA, backbone and methylation of C not given here; lipid conjugate)”, the “percentage of intact micelles” value [2] was 20%.

In the case of “lipo-G2T8-CG (DNA GGTTTTTTTTCG; DNA, backbone and methylation of C not given here; lipid conjugate)”, the “percentage of intact micelles” value [2] is reported as 36%.

With “lipo-G4T6-CG (DNA GGGGTTTTTTCG; DNA, backbone and methylation of C not given here; lipid conjugate)” the “percentage of intact micelles” value [2] was 73%.

For “lipo-G6T4-CG (DNA GGGGGGTTTTCG; DNA, backbone and methylation of C not given here; lipid conjugate)”, the “percentage of intact micelles” value [2] was 90%.

With “lipo-G8T2-CG (DNA GGGGGGGGTTCG; DNA, backbone and methylation of C not given here; lipid conjugate)” the “micelle stability on increasing number of guanines” value [2] was “did not further enhance micelle stability”.

With “lipo-G10T0-CG (DNA GGGGGGGGGGCG; DNA, backbone and methylation of C not given here; lipid conjugate)” the “micelle stability on increasing number of guanines” value [2] was “did not further enhance micelle stability”.
